Data reported in patent publication US20110118118A1, “HERBICIDALLY ACTIVE PHENYL-SUBSTITUTED PYRIDAZINONES” (BAYER CROPSCIENCE AG, priority 2009, published 2011).

How the values were obtained:
Experiment in all cases: Post-emergence herbicidal action against harmful plants
Format in all cases: in vivo
Settings in all cases: application rate 320 g/ha, rated visually after about 3 weeks vs untreated controls
Fallopia convolvulus = test system: Fallopia convolvulus
Procedure: (§1) 2. Post-Emergence Herbicidal Action Against Harmful Plants Seeds of monocotyledonous and dicotyledonous weed and crop plants are placed in sandy loam in wood-fiber pots, covered with soil and cultivated in a greenhouse under good growth conditions. 2 to 3 weeks after sowing, the test plants are treated at the one-leaf stage. The compounds according to the invention, formulated in the form of wettable powders (WP) or as emulsion concentrates (EC), are then sprayed as aqueous suspension or emulsion at a water application rate of 600 to 800 l/ha (converted) with the addition of 0.2% of wetting agent onto the green parts of the plants. After the test plants have been kept in the greenhouse under optimum growth conditions for about 3 weeks, the activity of the preparations is rated visually in comparison to untreated controls (herbicidal activity in percent (%): 100% activity=the plants have died, 0% activity=like control plants). Here, for example, the compounds Nos. I-1-c-2 and I-1-c-3 (Table 33 in each case) each show, at an application rate of 320 g/ha, an activity of at least 90% against Alopecurus myosuroides, Amaranthus retroflexus, Matricaria inodora, Pharbitis purpureum and Viola tricolor.

Veronica persica = test system: Veronica persica
Procedure: as §1

Lolium multiflorum = test system: Lolium multiflorum
Procedure: as §1

Abutilon theophrasti = test system: Abutilon theophrasti
Procedure: as §1

CCc1cc(Cl)cc(Br)c1-c1c(O)c(C)nn(C)c1=O [I-1-a-3]
100%: herbicidal activity in percent against Fallopia convolvulus (Fallopia convolvulus) | herbicidal activity in percent against Veronica persica (Veronica persica) | herbicidal activity in percent against Lolium multiflorum (Lolium multiflorum) | herbicidal activity in percent against Abutilon theophrasti (Abutilon theophrasti)

CCc1cc(Cl)cc(Br)c1-c1c(OC(=O)C(C)C)c(C)nn(C)c1=O [I-1-b-2]
100%: herbicidal activity in percent against Fallopia convolvulus (Fallopia convolvulus) | herbicidal activity in percent against Veronica persica (Veronica persica) | herbicidal activity in percent against Lolium multiflorum (Lolium multiflorum) | herbicidal activity in percent against Abutilon theophrasti (Abutilon theophrasti)
